Laboratory results published in patent US12385061B2, “Compositions and methods for chimeric ligand receptor (CLR)-mediated conditional gene expression” (Poseida Therapeutics, Inc., priority 2017, dated 2025).
Read-outs that look alike come from different tables or passages of the source.

Experiments:
cells [1] = assay: Amount of AP1903 needed in vitro for effective signaling of cells; format: cell-based; conditions: converted with 1600 Da MW
Description: The fixed dose of AP1903 for injection used, for example, may be 0.4 mg/kg intravenously infused over 2 hours. The amount of AP1903 needed in vitro for effective signaling of cells is 10-100 nM (1600 Da MW). This equates to 16-160 μg/L or {tilde over ( )}0.016-1.6 μg/kg (1.6-160 μg/kg). Doses up to 1 mg/kg were well-tolerated in the Phase I study of AP1903 described above. Therefore, 0.4 mg/kg may be a safe and effective dose of AP1903 for this Phase I study in combination with the therapeutic cells.

cells [2] = conditions: cited from earlier work
[3] = cited from earlier work

**Q.** What does the source list for `CC[C@H](C(=O)N1CCCC[C@H]1C(=O)O[C@H](CCc1ccc(OC)c(OC)c1)c1cccc(OCC(=O)NCCNC(=O)COc2cccc([C@@H](CCc3ccc(OC)c(OC)c3)OC(=O)[C@@H]3CCCCN3C(=O)[C@@H](CC)c3cc(OC)c(OC)c(OC)c3)c2)c1)c1cc(OC)c(OC)c(OC)c1` (relative stereo) [AP1903, 2-Piperidinecarboxylic acid, 1-[(2S)-1-oxo-2-(3,4,5-trimethoxyphenyl)butyl]-, 1,2-ethanediylbis[imino(2-oxo-2,1-ethanediyl)oxy-3,1-phenylene[(l R)-3-(3,4-dimethoxyphenyl)propylidene]]ester, [2S-[1(R*),2R*[S*[S*[1(R*),2R*]]]]]-(9Cl)]?
**A.** amount needed in vitro for effective signaling of cells, converted (cells [1]): 16 to 160 µg/L; amount needed in vitro for effective signaling of cells (cells [2]): 10 to 100 nM; pharmacokinetic profile ([3]; 0.01-1.0 mg/kg IV over 2 hours): favorable pharmacokinetic profile; plasma levels in relation to dose ([3]; 0.01-1.0 mg/kg IV over 2 hours): directly proportional to dose; plasma level as % of maximal concentration ([3]; 0.5 hours post-dose): approximately 18%; plasma level as % of maximal concentration ([3]; 2 hours post-dose): ~7%; plasma level as % of maximal concentration ([3]; 10 hours post-dose): ~1%; doses well-tolerated ([3]; Phase I study): up to 1 mg/kg; safety and tolerability ([3]; at all dose levels (0.01-1.0 mg/kg)): safe and well tolerated; mean Cmax ([3]; over the 0.01-1.0 mg/kg dose range, single doses infused IV over 2 hours, 24 healthy volunteers): 10 to 1275 ng/mL
